Each block holds one compound with its values, some of them ahead of it.
Test: Thermal stability of test formulation on storage at 60° C. until thermal polymerization
Type: physicochemical
Conditions: for sufficient thermal stability: inhibitor in test formulation; for thermal stability of formulation FBE-05.44.01: all columns dark shaded
Method: A series of test formulations containing different thermal polymerization inhibitors was prepared in order to illustrate the surprising thermal stability of a dental adhesive composition according to the present invention. Test formulations containing different inhibitors or inhibitor concentrations were stored in Prime&Bond NT bottles ([…]) at 60° C. until thermal polymerization. The bottles were daily examined by shaking the bottle, whereby the acoustical test turned out to be rather sensitive, and by taking a sample with a pipette. When polymerization seemed to have occurred or after a certain minimum storage time (20 days) the bottles were sliced open and the solution were examined visually. According to the results of the above described Arrhenius investigation at least a thermal stability of about 11 days at 60° C. is necessary so that the dental adhesive composition may be stored at room temperature. The Test Formulation containing different inhibitors in different amounts, was investigated regarding its thermal stability by storing these formulations at 60° C. The samples were daily examined. In case of polymerization a gel or a solid, polymerized body was observed. The dark shaded columns represent formulations with inhibitors, respectively inhibitor concentrations, which were polymerized after the depicted time at 60° C. The light shaded columns represent formulations, which were not polymerized until the depicted time. Usually after 20 days the investigation was terminated.

Compound: Cc1cc(C(C)(C)C)c(O)c(C(C)(C)C)c1 [BHT, 2,6-di-tert.-butyl-p-cresol]
sufficient thermal stability (storage at 60° C.): failed to provide a sufficient thermal stability

thermal stability of formulation FBE-05.44.01 (storage at 60° C.): polymerized after the recorded time
Compound: CC(C)(c1ccc(O)cc1)c1ccc(O)cc1 [Bisphenol A]

stabilization effect (inhibitor 0.15 mol % in test formulation, storage at 60° C.): some stabilization effect
Compound: Oc1ccc(O)cc1 [HQ, hydroquinone]

Compound: COc1ccc(O)cc1 [HQME, hydroquinone monomethylether]
visual examination after slicing open the bottle (0.49 mol % inhibitor in FBE-05.44.01, storage at 60° C.): small pieces of gel were found at the bottom | visual examination after slicing open the bottle (0.697 mol % inhibitor in FBE-05.44.01, storage at 60° C.): small pieces of gel were found at the bottom | sufficient thermal stability (storage at 60° C.): failed to provide a sufficient thermal stability

thermal stability of formulation FBE-05.44.01 (storage at 60° C.): polymerized after the recorded time
Compound: CCCOC(=O)c1cc(O)c(O)c(O)c1 [PG, Propyl gallate]

Compound: CC(C)(C)c1ccc(O)c(O)c1 [TBC]
visual examination after slicing open the bottle (0.193 mol % inhibitor, storage at 60° C.): some pieces of gel were found at the bottom

visual examination after slicing open the bottles (0.013 mol % inhibitor, after 20 days at 60° C.): polymerization was found | visual examination after slicing open the bottles (after 14 days and after 20 days at 60° C., FBE-05.44.01): No hints of a polymerization were found
Compound: CC(C)(C)c1cc(O)ccc1O [TBHQ, tert-Butylhydroquinone]

Compound: COc1ccc(O)c(C(C)(C)C)c1 [tert.-Butylhydroxyanisole, tert.-Butylhydroxyanisol]
visual examination after slicing open the bottles (0.047 mol % inhibitor, after 14 days at 60° C.): some pieces of gel | visual examination after slicing open the bottles (0.047 mol % inhibitor, after 20 days at 60° C.): some small pieces of gel | visual examination after slicing open the bottles (0.096 mol % inhibitor, after 20 days at 60° C.): No indication of polymerization | visual examination after slicing open the bottles (0.147 mol % inhibitor, after 20 days at 60° C.): No indication of polymerization

Source: US20150335535A1, “DENTAL ADHESIVE” (DENTSPLY INTERNATIONAL INC., priority 2008, published 2015)
